Measured values reported in patent US12636277B2, “Methods for treating developmental dysplasis of hip” (WEST CHINA HOSPITAL OF SICHUAN UNIVERSITY, priority 2024, dated 2026).
Entries after “also recorded” stand apart in the source; their conditions may differ.

Key:
[1] = system: DDH rat model; assay: DDH rat model, iMDK injected into the hip joints (Micro CT, HE and safranin O-solid green staining, immunohistochemistry); assay type: in vivo, Wistar rats; conditions: 5 mg/kg body weight into hip joints for 7 days
Experimental: In some embodiments, a DDH rat model is established to illustrate the results of the present disclosure. The manner of establishing the DDH rat model is as follows.
Fifteen neonatal rodents (e.g., Wistar rats, etc.) were divided into the control group, DDH group, and iMDK group. The DDH rat model was prepared by fixing the hind limbs of rats in the DDH group and the iMDK group using medical adhesive tape, etc., and keeping the hip joints internally retracted or post-extended for 10 days. […] Neonatal rats were fed by their mothers and had normal growth, development, and nutritional status. Rats in the DDH group and the iMDK group were de-taped for 30 min daily.
After 10 days, iMDK (e.g., HY-110171, etc.) was injected into the hip joints of rats in the iMDK group at a dosage of 5 mg/kg body weight for 7 days. Rats in the DDH group and control group were injected with equal volumes of saline.
It can be seen from FIG. 4 that compared with the control group, the acetabulum of the rats in the DDH group became shallow and the hip joints were dislocated.
In some embodiments, hip specimens were stained with HE (hematoxylin-eosin staining) and safranin O-solid green SO, and the results are shown in FIGS. 5A-5B. As shown in FIGS. 5A-5B, the acetabular labrum was thickened and the articular structure was disorganized in the DDH group. The iMDK group inhibited abnormal manifestations within the joint such as thickening of the acetabular labrum and joint structure disorders.

[2] = system: primary FSPC; assay: Edu assay of cell proliferation of primary FSPC after iMDK treatment; assay type: cell-based, human; conditions: iMDK 100 nM, DDH group FSPC in vitro, compared with the DDH group
Experimental: (§1) The samples from the DDH group were divided into two portions, one of which was treated with iMDK in vitro (DDH cell samples were added with iMDK, where the iMDK was 100 nM), and the specific dosages and treatments were not restricted by reference to commonly used inhibitor treatments or mixed cultures, etc. Cells in the control group and DDH group were cultured in the same way (the difference is no iMDK treatment). Post-treatment samples were examined for the expression levels of NR3C1 and MDK and cell proliferation of primary FSPC from different groups after treatment with the MDK inhibitor (IMDK), using Western blot and the Edu assay, etc., and the results were shown in FIGS. 3E-3F. As shown in FIGS. 3E-3F, compared with the DDH group, the expression levels of NR3C1 and MDK were reduced and the cell proliferation was reduced in the control group. Compared with the DDH group, the expression levels of NR3C1 and MDK were reduced in iMDK-treated FSPC, and cell proliferation capacity was reduced.

[3] = system: NR3C1 and MDK expression in primary FSPC; assay: Western blot of NR3C1 and MDK expression in primary FSPC after iMDK treatment; assay type: cell-based, human; conditions: iMDK 100 nM, DDH group FSPC in vitro, compared with the DDH group
Experimental: as §1

[4] = hip specimens, rank among DDH, DDH+iMDK and control groups

## O=c1oc2ccccc2cc1-c1cn2cc(Cc3ccc(F)cc3)sc2n1 [iMDK]
[1]; hip specimens
  abnormal manifestations within the joint such as thickening of the acetabular labrum and joint structure disorders (HE, safranin O-solid green staining): inhibited; also recorded: inhibits the thickening of the acetabular labrum
[1]; [4]
  expression level of Ki67 (immunohistochemistry): highest in the DDH group, followed by the DDH+iMDK group
  expression level of NR3C1 (immunohistochemistry): highest in the DDH group, followed by the DDH+iMDK group
[1]; specimens 24 days after end of treatment
  hip dislocation (Micro CT): significant improvement
[2]
  cell proliferation capacity: reduced
[3]
  expression level of MDK: reduced
  expression level of NR3C1: reduced
